Test results taken from patent publication US10174005B2, “Fused pyrimidines as inhibitors of p97 complex” (Cleave Biosciences, Inc., priority 2014, dated 2019).
Like-named read-outs stand apart in the source and are kept apart here.

Assays:
A549 cells = assay: Cultured cancer cell viability assay (cell titer glo, CTG) in A549 cells; assay type: cell-based; conditions: Homo sapiens, read-out: A549 CTG IC50
Description: Anti-tumor effects are monitored in cultured cancer cells after several days of compound treatment. The cell titer glo assay (Promega) measures the amount of ATP present as a proxy for cellular viability. Cellular counting is done using high-content microscopy followed by image analysis. A hanging drop 3D-culture system (3D Biomatrix) is used followed by cell titer glo to measure growth in a tumor-like environment.
The cellular assay provides information about the anti-neoplastic activity of the compounds of the invention. The compounds are tested against cultured cancer cells to determine whether or not the compounds of the invention are capable of intersecting with cancer cells to minimize or eliminate such cells. The assay involves establishing colonies of such cells and then treating them with the test compound under specified conditions and analysis regima to determine results.
(§1) Cell Plating: • Seed cells ˜16 hrs prior to compound treatment • Plate 25 μL of A549 cells in every well of 384-well plate using multidrop. • Two (2) black plates for IF at 2500 cells/well • Let plate sit at room temp for 10-15 minutes prior to putting in incubator to • allow cells to stick in middle of plate. • One (1) white plate for viability at 500 cells/well.
(§2) Day 2 Treatment of Cultured Cells with Test Compounds • Treat Cells: • Serial dilute compounds with a 10 point 2-fold serial dilution in DMSO to make 250× stock compound solution • Dilute compounds 1:125 in cell culture media to make a 2× solution Add • 25 μl of dilution compounds to cell plates in well duplicates Put cells back in incubator (6 hr incubation for black plates, 72 hr incubation for white plates).
Viability Assay: • Thaw an aliquot of frozen cell titer glo (Promega G7572) at room temperature. • Add 45 mL of NaCl/PBS solution to 5 ml of cell titer glo (10×). • Remove white plates from incubator, leave at room temp for 30 minutes. • Add 25 μl of diluted cell titer glo to each well. • Shake plate for >1 minute. • Incubate plate for >5 minutes to stabilize luminescence. • Luminescence is stable for up to 3 hours. • Read luminescence on plate reader

p97 = p97 (Homo sapiens, UniProt P55072); assay: P97 ATPase biochemical assay (ADP Glo); conditions: 20 nM p97, 20 μM ATP, 37° C. for 15 minutes
Procedure: The ATPase assay is performed according the following protocol: Purified enzyme (20 nM p97), substrate (20 μM ATP) and a dose titration of compounds are mixed in buffer (50 mM TRIS pH 7.5, 20 mM MgCl2, 0.02% TX-100, 1 mM DTT, 0.2% (v/v) glycerol) and incubated at 37° C. for 15 minutes. The reaction is terminated and the level of product generated is measured using the ADP Glo Assay Kit (Promega, Madison Wis.). Plotting product generated versus compound concentration and using a four-parameter fit model generates an IC50 value for each compounds.
The p97 assay is an initial screening assay used to determine inhibitory activity of the fused pyrimidine compounds of the invention against the p97 complex. As discussed above, inhibition of activity of the p97 proteosome complex can enable apoptosis and cause elimination of neoplastic cells (cancer cells). The method follows that of Christianson in Nat. Cell Biol., (2011) 14:93.
Assay Buffer is a mixture of 50 mM TRIS pH 7.5, 20 mM MgCl2, 0.02% TX-100, 1 mM DTT and 0.2% (v/v) Glycerol. The well plate is Platetype: Corning 3674, 384w plate. The identification kit is an ADP glo kit (Promega): stop buffer, detection reagent.
Serial dilute compound in DMSO in a 1:3.33-fold 10 point serial dilution.
in each well of 384w plate add the following reagents:
0.5 μL compound serial diluted in DMSO (Final Conc. 10%)
2 μL ATP (Final Conc.=20 uM, diluted in assay buffer)
2.5 μL p97 (Final Conc.=20 nM, diluted in assay buffer)
Incubate at 37 deg C. for 15 min.
Add 5 μL of stop buffer, incubate at RT for 40 min.
Add 10 μL of detection reagent, incubate at RT for 30 min.
Read luminescence on Envision plate reader.
Upon obtaining the data from the luminescence reading, the data may be analyzed as follows:
Normalize luminescence data using no enzyme (full inhibition) and no compound (no inhibition) controls. Plot normalized luminescence data against log-transformed concentration values and fit to a sigmoidal curve to determine IC50 values (done in Collaborative Drug Discovery software).

[1] = system: K48-Ub (lysine-48 chain linkage of poly-ubiquitin) in A549 cells; assay: A549 K48-Ub accumulation, immunofluorescence high-content imaging; assay type: cell-based; conditions: Homo sapiens, 6 hr incubation
Procedure: Image-analysis is used to generate quantitative data from these assays that can be fit to a four-parameter sigmoid curve to derive IC50 values. Substrates of the ubiquitin-proteasome system, such as p53, are monitored after tumor cell lines are incubated with compounds for several hours. Accumulation of these proteins indicates an inhibition of proteasome-mediated degradation. Accumulation of lysine-48 chain linkage of poly-ubiquitin is also monitored by immunofluorescence as an indicator of ubiquitin-proteasome system inhibition. Both LC3 and SQSTM1 are mediators of autophagy. The localization and amounts of these proteins are monitored by immunofluorescence and report on the activity and inhibition of autophagy in response to p97 inhibition.
as §1, §2
Fix/Stain Black Plates: • Incubate cells in black plates with compound at 37 deg C. for 6 hrs. add 15 μL of 16% Paraformaldehyde (PFA) directly into media of each well, incubate at room temp for 5 min, flick plate and wash in 50 μL of PBS block in 50 μL of Blocking Buffer for 30 minutes (can go up to several hours) • Blocking buffer: 1×PBS, 1% BSA, 0.3% Triton-X 100, Hoechst (1:10,000) incubate in 25 μL of primary antibody in blocking buffer at 4 deg C. over night
Secondary Antibodies: • AlexaFluor488 Goat anti-Rabbit 1:2,000 (Life Tech A11008) • AlexaFluor555 Goat anti-Mouse 1:2.000 (Life Tech A21422)
Day 3/4 • Black Plate Staining (cont): • wash black plates 3× in 50 μL PBS (˜5 min each) incubate in 25 μl of secondary antibody (1:2,000) in blocking buffer for 1-2 hrs at room temp (alexafluor488-anti-Rabbit/alexafluor555-anti-Mouse) • wash 4× in 50 μL PBS (˜5 min each) • leave plates in PBS for imaging • clean bottom of plates with 70% EtOH
Imaging: • Image plates in high content microscope with 405 nm, 488 nm and 555 nm filters
Data Analysis: • Nuclear counts and cellular intensities of each markers are measured using Hoechst as a nuclear marker with an automated image analysis protocol using Matlab software (Math Works)

[2] = A549 cells, 72 hr incubation, cell titer glo

Sequence of p97 (P55072 whole entry): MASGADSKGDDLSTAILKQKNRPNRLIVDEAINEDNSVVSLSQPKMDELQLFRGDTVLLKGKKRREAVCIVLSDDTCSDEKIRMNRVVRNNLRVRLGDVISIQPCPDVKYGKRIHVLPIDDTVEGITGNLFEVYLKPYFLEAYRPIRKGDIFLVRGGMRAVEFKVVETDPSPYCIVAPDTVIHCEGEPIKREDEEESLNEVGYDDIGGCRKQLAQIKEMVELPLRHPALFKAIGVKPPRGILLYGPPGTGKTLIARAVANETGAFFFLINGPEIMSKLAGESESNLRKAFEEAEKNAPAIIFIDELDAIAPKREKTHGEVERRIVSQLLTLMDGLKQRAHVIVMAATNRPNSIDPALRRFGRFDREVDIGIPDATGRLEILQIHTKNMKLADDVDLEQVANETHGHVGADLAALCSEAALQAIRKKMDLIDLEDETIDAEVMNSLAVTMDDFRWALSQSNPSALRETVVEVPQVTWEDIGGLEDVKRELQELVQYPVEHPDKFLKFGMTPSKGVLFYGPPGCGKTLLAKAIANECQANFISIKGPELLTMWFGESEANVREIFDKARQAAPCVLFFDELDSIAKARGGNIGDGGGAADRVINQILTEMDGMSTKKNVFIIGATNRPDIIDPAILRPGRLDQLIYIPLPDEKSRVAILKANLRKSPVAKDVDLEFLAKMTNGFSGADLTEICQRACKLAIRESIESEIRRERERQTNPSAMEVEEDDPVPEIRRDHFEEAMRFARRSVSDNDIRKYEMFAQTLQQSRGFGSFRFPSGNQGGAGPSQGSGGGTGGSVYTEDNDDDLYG

| SMILES | IC50 (A549 cells; [2]) [nM] | IC50 (p97) [nM] | IC50 [1] [nM] | IC50 (A549 cells; A549, 72 h) [nM] |
| --- | --- | --- | --- | --- |
| NC(=O)c1cccc2c1cnn2-c1nc2c(c(NCc3ccccc3)n1)CCCC2 [FF03, 1-(4-(benzylamino)-5,6,7,8-tetrahydroquinazolin-2-yl)-1H-indazole-4-carboxamide] | < 1000 | < 30 | < 1000 |  |
| NC(=O)c1cccc2c1cnn2-c1nc2c(c(NCc3ccccc3)n1)COCC2 [FF04, 1-(4-(benzylamino)-7,8-dihydro-5H-pyrano[4,3-d]pyrimidin-2-yl)-1H-indazole-4-carboxamide] |  | < 300 |  |  |
| Cc1[nH]c2c(C(N)=O)cccc2c1-c1nc2c(c(NCc3ccccc3)n1)CCCC2 [FF05, 3-(4-(benzylamino)-5,6,7,8-tetrahydroquinazolin-2-yl)-2-methyl-1H-indole-7-carboxamide] | < 3000 | < 30 | < 3000 |  |
| Cc1cc2c(C(N)=O)cccc2n1-c1nc(NCc2ccccc2)c2c(n1)OCCC2 [FF06, 1-(4-(benzylamino)-6,7-dihydro-5H-pyrano[2,3-d]pyrimidin-2-yl)-2-methyl-1H-indole-4-carboxamide] | < 1000 | < 30 | < 1000 |  |
| Cc1cc2c(C(N)=O)cccc2n1-c1nc2c(c(NCc3ccccc3)n1)CCCN2 [FF07, 1-(4-(benzylamino)-5,6,7,8-tetrahydropyrido[2,3-d]pyrimidin-2-yl)-2-methyl-1H-indole-4-carboxamide] | < 1000 | < 30 | < 1000 |  |
| Cc1cc2c(C(N)=O)cccc2n1-c1nc(NCc2ccccc2)c2c(n1)OCC2 [FF08, 1-(4-(benzylamino)-5,6-dihydrofuro[2,3-d]pyrimidin-2-yl)-2-methyl-1H-indole-4-carboxamide] | < 3000 | < 100 | < 3000 |  |
| Cc1cc2c(C(N)=O)cccc2n1-c1nc(NCc2cccc(F)c2)c2c(n1)OCCC2 [FF09, 1-(4-((3-fluorobenzyl)amino)-6,7-dihydro-5H-pyrano[2,3-d]pyrimidin-2-yl)-2-methyl-1H-indole-4-carboxamide] | < 1000 | < 30 | < 1000 |  |
| Cc1[nH]c2c(C(N)=O)cccc2c1-c1nc2c(c(NCc3ccccc3)n1)COCC2 [FF10, 3-(4-(benzylamino)-7,8-dihydro-5H-pyrano[4,3-d]pyrimidin-2-yl)-2-methyl-1H-indole-7-carboxamide] | < 3000 | < 100 | < 3000 |  |
| CN1CCCc2nc(-n3ncc4c(C(N)=O)cccc43)nc(NCc3cccc(F)c3)c21 [FF11, 1-(4-((3-fluorobenzyl)amino)-5-methyl-5,6,7,8-tetrahydropyrido[3,2-d]pyrimidin-2-yl)-1H-indazole-4-carboxamide] |  | < 100 |  |  |
| Cc1cc2c(C(N)=O)cccc2n1-c1nc2c(c(NCc3cccc(F)c3)n1)N(C)CCC2 [FF12, 1-(4-((3-fluorobenzyl)amino)-5-methyl-5,6,7,8-tetrahydropyrido[3,2-d]pyrimidin-2-yl)-2-methyl-1H-indole-4-carboxamide] | < 1000 | < 30 | < 1000 |  |
| Cc1cc2c(C(N)=O)cccc2n1-c1nc(NCc2ccccc2)c2c(n1)C(C)CN(C)C2 (stereo not drawn) [FF13, 1-(4-(benzylamino)-6,8-dimethyl-5,6,7,8-tetrahydropyrido[4,3-d]pyrimidin-2-yl)-2-methyl-1H-indole-4-carboxamide] |  | < 100 |  |  |
| COc1nc2c(C(N)=O)cccc2n1-c1nc(NCc2cccc(F)c2)c2c(n1)OCCC2 [FF15, 1-(4-((3-fluorobenzyl)amino)-6,7-dihydro-5H-pyrano[2,3-d]pyrimidin-2-yl)-2-methoxy-1H-benzo[d]imidazole-4-carboxamide] |  | < 30 |  | < 3000 |
| Cc1cc2c(C(N)=O)cccc2n1-c1nc2c(c(NCc3ccccc3)n1)CCNCC2 [FF20, 1-(4-(benzylamino)-6,7,8,9-tetrahydro-5H-pyrimido[4,5-d]azepin-2-yl)-2-methyl-1H-indole-4-carboxamide] |  | < 300 |  | < 3000 |

Now from value to molecule, other results behind:

| IC50 (A549 cells; [2]) [nM] | IC50 (p97) [nM] | IC50 [1] [nM] | SMILES | IC50 (A549 cells; A549, 72 h) [nM] |
| --- | --- | --- | --- | --- |
| < 3000 | < 100 |  | NC(=O)c1cccc2c1cnn2-c1nc2c(c(NCc3cccc(F)c3)n1)CCCC2 [FF14, 1-(4-((3-fluorobenzyl)amino)-5,6,7,8-tetrahydroquinazolin-2-yl)-1H-indazole-4-carboxamide] |  |
| < 10000 | < 30 |  | NC(=O)c1cccc2c1cnn2-c1nc(NCc2cccc(F)c2)c2c(n1)OCCC2 [FF16, 1-(4-((3-fluorobenzyl)amino)-6,7-dihydro-5H-pyrano[2,3-d]pyrimidin-2-yl)-1H-indazole-4-carboxamide] |  |
| < 1000 | < 30 |  | NC(=O)c1cccc2c1cc(CO)n2-c1nc2c(c(NCc3ccccc3)n1)CCCN2 [FF17, 1-(4-(benzylamino)-5,6,7,8-tetrahydropyrido[2,3-d]pyrimidin-2-yl)-2-(hydroxymethyl)-1H-indole-4-carboxamide] |  |
|  | < 1000 |  | Cc1oc2c(C(N)=O)cccc2c1-c1nc2c(c(NCc3cccc(F)c3)n1)COCC2 [FF22, 3-(4-((3-fluorobenzyl)amino)-7,8-dihydro-5H-pyrano[4,3-d]pyrimidin-2-yl)-2-methylbenzofuran-7-carboxamide] |  |
|  | < 300 |  | Cc1cc2c(CN)cccc2n1-c1nc(NCc2ccccc2)c2c(n1)OCCC2 [FF31, 2-(4-(aminomethyl)-2-methyl-1H-indol-1-yl)-N-benzyl-6,7-dihydro-5H-pyrano[2,3-d]pyrimidin-4-amine] |  |
|  | < 1000 |  | NC(=O)c1cccc2c1cnn2-c1nc2c(c(NCc3ccccc3)n1)CNCC2 [FF33, 1-(4-(benzylamino)-5,6,7,8-tetrahydropyrido[4,3-d]pyrimidin-2-yl)-1H-indazole-4-carboxamide] |  |
| < 10000 |  | < 10000 | Cc1[nH]c2ccccc2c1-c1nc2c(c(NCc3ccccc3)n1)CCCC2 [FF36, N-benzyl-2-(2-methyl-1H-indol-3-yl)-5,6,7,8-tetrahydroquinazolin-4-amine] |  |
